Data on two compounds can be found in ChEMBL document CHEMBL4842381, “A Novel, Selective c-Abl Inhibitor, Compound 5, Prevents Neurodegeneration in Parkinson's Disease” (J Med Chem, 2021).

Series [1] can be described thus: in vivo. Conditions: ICR, mouse, brain/plasma, po, 5 mg/kg.
Series [2] can be described thus: in vivo. The following applies: ICR, mouse, plasma, po, 5 mg/kg.
A short description of series [3]: in vivo. The following applies: ICR, mouse, plasma, po, 5 mg/kg. The source holds these as a separate data set.
A short description of series [4]: in vivo. Conditions: ICR, mouse, plasma, po, 5 mg/kg. The source holds these as a separate data set.
A short description of series [5]: in vivo. Conditions: ICR, mouse, plasma, po, 5 mg/kg. The source holds these as a separate data set.

In general, AUC(0-inf) refers to total exposure, with the tail of the curve extrapolated. High values mean more exposure, low ones less exposure. The Tmax is the time at which the peak concentration occurs. The term Cmax denotes the peak of the concentration-time curve. By half-life is commonly meant the time in which the quantity being followed falls by half. A higher half-life goes with slow decline. For `Cc1c(F)cncc1-c1ccc2nc(NC(=O)[C@@H]3C[C@@H]3F)sc2c1`, the Kp uu at 24 h in “in vivo [1]” came out at 0.21. For the same compound, in “in vivo [2]”, the area under the curve AUC(0-inf) at 24 h came out at 25000 ng·h/mL. Further, the Tmax at 24 h in the series “in vivo [3]” stood at 1.2 h. The concentration in the series “in vivo [4]” peaked (Cmax at 24 h) at 4260 ng/mL. The compound also showed a half-life at 24 h in “in vivo [5]” of 1.8 h.

`Cc1cn(-c2cc(NC(=O)c3ccc(C)c(Nc4nccc(-c5cccnc5)n4)c3)cc(C(F)(F)F)c2)cn1` [NILOTINIB]: the time of peak concentration (Tmax) at 24 h in the series “in vivo [3]” was 1 h.
